Experimental data taken from patent US9133230B2, “Hydrazone derivatives having potent antitumor activity toward multi-drug resistant tumor cells” (THE UNITED STATES OF AMERICA AS REPRESENTED BY THE …, priority 2011, dated 2015).

Tests used:
[1] = system: human colon carcinoma HCT-15; assay: MTS cytotoxicity assay, HCT-15; type: cell-based
Experimental: (§1) In order to obtain information about the growth-inhibiting action of hydrazones reported in the present invention on tumor cells, growth inhibition was assessed for the following human tumor cell lines: human myelogenous leukemia K562, human cervical adenocarcinoma HeLa, human colon adenocarcinoma Caco-2, human colon carcinoma HT-29, human colon carcinoma HCT-15, and human breast carcinoma MCF-7.
(§2) The K562, HeLa, HT-29, HCT-15, Caco-2, and MCF-7 cell lines were obtained from the American type Culture Collection (ATCC, Manassas, Va.). K562 cells were maintained in RPMI 1640 medium (Gibco/Life Technologies, Gaithersburg, Md.) containing 10% heat-inactivated fetal bovine serum (FBS) (Atlanta Biologicals, Atlanta, Ga.) and 10000 U/L penicillin and 50 mg/L streptomycin. HeLa, HT-29, HCT-15, Caco-2 and MCF-7 cells were maintained in MEM with Earl's balanced salts, 10% FBS, penicillin, and streptomycin as above. Logarithmically growing HT-29, Caco-2, and MCF-7 cells were incubated with 0.05% trypsin containing 1 mM EDTA at 37° C. for about 5 min until cells were nonadherent and formed a single cell suspension. Trypsin activity was neutralized by adding 20-fold excess of the serum-containing medium. Cells were cultured at 37° C. in an atmosphere of air and 5% CO2.
(§3) Cytotoxicity assays were conducted by tetrazolium reduction of 3-(4,5-dimethylthiazol-2-yl)-5-(3-carboxymethoxyphenyl)-2-(4-sulfophenyl)-2H-tetrazolium (MTS) with N-methylphenazonium methyl sulfate (PMS) (CellTiter Assay, Promega, Madison, Wis.). Logarithmically growing cells were plated in 0.1 mL aliquots in 96-well microtiter plates. Cells were plated at an initial density of about 5000 cells/mL and allowed to acclimatize for 24 h. Cell suspensions were treated with various dilutions of compounds in triplicate, mixed well, and allowed to incubate for 48 h at 37° C. in an atmosphere of air and 5% CO2. To the cell suspension was added 20 μL of tetrazolium reagent, the mixture was incubated for 2 h at 37° C. in an atmosphere of air and 5% CO2, and absorbance at 490 nm was read by microplate reader. Control plates with serial dilutions of cell types were counted as a control for the assay. In all cases, controls indicated a linear response versus cell number, R^2≧0.99.

[2] = system: human colon adenocarcinoma Caco-2; assay: MTS cytotoxicity assay, Caco-2; type: cell-based
Experimental: as §1, §2, §3

[3] = system: human myelogenous leukemia K562; assay: MTS cytotoxicity assay, K562; type: cell-based
Experimental: as §1, §2, §3

[4] = system: human colon carcinoma HT-29; assay: MTS cytotoxicity assay, HT-29; type: cell-based
Experimental: as §1, §2, §3

[5] = system: human cervical adenocarcinoma HeLa; assay: MTS cytotoxicity assay, HeLa; type: cell-based; conditions: 48 h incubation
Experimental: as §1, §2, §3

[6] = system: human breast carcinoma MCF-7; assay: MTS cytotoxicity assay, MCF-7; type: cell-based
Experimental: as §1, §2, §3

[7] = system: HL60-VCR; conditions: MDR cell line characterisation; cited from earlier work
[8] = Homo sapiens, HCT-15, 48 h incubation
[9] = Homo sapiens, Caco-2, 48 h incubation
[10] = Homo sapiens, K562, 48 h incubation
[11] = Homo sapiens, HT-29, 48 h incubation
[12] = Homo sapiens, MCF7, 48 h incubation

Row | Compound | GI50 [1, 8] | GI50 [2, 9] | GI50 [3, 10] | GI50 [4, 11] | GI50 ([5]; Homo sapiens, HeLa) | GI50 [6, 12] | GI50 ([1]; 48 h incubation) | GI50 ([2]; 48 h incubation) | GI50 ([3]; 48 h incubation) | GI50 ([4]; 48 h incubation) | GI50 [5] | GI50 ([6]; 48 h incubation) | resistance expressed by HL60-VCR [7]
1 | c1ccc(C(=NNc2ncnc3[nH]cnc23)c2ccccn2)cc1 [I-19, 6-(2-(Phenyl(pyridin-2-yl)methylene)hydrazinyl)-9H-purine] | < 1 µM | 0.9 µM | 0.9 µM | 0.9 µM | 1.4 µM | 0.9 µM | – | – | – | – | – | – | –
2 | OC[C@H]1OC(n2cnc3c(NN=Cc4ccncc4)ncnc32)[C@H](O)[C@@H]1O (stereo partly drawn) [I-11] | – | – | – | – | – | – | 71 µM | 11 µM | 58 µM | 79 µM | 56 µM | 70 µM | –
3 | C[C@]1(O)C(O)[C@H](n2cnc3c(NN=C(c4ccccc4)c4ccccn4)ncnc32)O[C@@H]1CO (stereo partly drawn) [I-1, (2R,3S,5R)-2-(hydroxymethyl)-3-methyl-5-(6-(2-(phenyl(pyridin-2-yl)methylene)hydrazinyl)-9H-purin-9-yl)tetrahydrofuran-3,4-diol] | – | 43.2 µM | 48.1 µM | 57.2 µM | 68.9 µM | > 100 µM | – | – | – | – | – | – | –
4 | 6-(2-(Dipyridin-2-yl)methylene)hydrazinyl)-9-methyl-9H-purine [I-23] | – | – | – | – | – | – | – | – | 0.9 µM | – | – | – | –
5 | C[C@@]1(O)[C@@H](CO)OC(n2cnc3c(NN=Cc4ccccn4)ncnc32)[C@@H]1O (stereo partly drawn) [I-4] | – | – | – | – | – | – | 3.9 µM | 7.6 µM | 6.8 µM | 27 µM | 7.6 µM | 22 µM | –
6 | CC[C@]1(O)C[C@H]2CN(CCc3c([nH]c4ccccc34)[C@@](C(=O)OC)(c3cc4c(cc3OC)N(C=O)[C@H]3[C@@](O)(C(=O)OC)[C@H](OC(C)=O)[C@]5(CC)C=CCN6CC[C@]43[C@@H]65)C2)C1 [vincristine] | – | – | – | – | – | – | – | – | – | – | – | – | 1300 fold
7 | Cc1ccc(C=NNc2ncnc3[nH]cnc23)s1 [I-21, 6-[2-((5-Methylthiophen-2-yl)methylene)hydrazinyl]-9H-purine] | 40 µM | 39 µM | 11 µM | 35 µM | 38 µM | 11 µM | – | – | – | – | – | – | –
8 | c1ccc(C(=NNc2ncnc3[nH]cnc23)c2ccccn2)nc1 [I-20, 6-(2-(Dipyridin-2-ylmethylene)hydrazinyl)-9H-purine] | – | – | 0.1 µM | – | – | – | – | – | – | – | – | – | –
9 | C(=NNc1ncnc2[nH]cnc12)c1ccc[nH]1 [I-22] | – | – | – | – | – | – | 5.6 µM | > 100 µM | 7.1 µM | 6.9 µM | 12 µM | 9.2 µM | –
10 | CC(=NNc1ncnc2c1ncn2C1O[C@H](CO)[C@@H](O)[C@H]1O)c1ccccc1 (stereo partly drawn) [I-17, (2R,3S,4R)-2-(hydroxymethyl)-5-(6-(2-(1-phenylethylidene)hydrazinyl)-9H-purin-9-yl)tetrahydrofuran-3,4-diol] | 4.6 µM | 3.1 µM | 5 µM | 2.6 µM | 1.6 µM | 3.1 µM | – | – | – | – | – | – | –
11 | OC[C@H]1OC(n2cnc3c(NN=C(c4ccccn4)c4ccccn4)ncnc32)[C@H](O)[C@@H]1O (stereo partly drawn) [I-13] | – | – | – | – | – | – | < 1 µM | 0.2 µM | 0.3 µM | 0.8 µM | 0.3 µM | 0.9 µM | –
12 | Cc1ccc(C=NNc2ncnc3c2ncn3C2O[C@H](CO)[C@@H](O)[C@H]2O)s1 (stereo partly drawn) [I-15, (2R,3S,4R)-2-(hydroxymethyl)-5-(6-(2-((5-methylthiophen-2-yl)methylene)hydrazinyl)-9H-purin-9-yl)tetrahydrofuran-3,4-diol] | 5 µM | 1.8 µM | 19 µM | 16 µM | 4.3 µM | 16 µM | – | – | – | – | – | – | –
13 | OC[C@H]1OC(n2cnc3c(NN=Cc4ccccc4)ncnc32)[C@H](O)[C@@H]1O (stereo partly drawn) [I-16] | – | – | – | – | – | – | 5.5 µM | 7.6 µM | 15 µM | 13 µM | 3 µM | 10 µM | –
14 | CC(=NNc1ncnc2c1ncn2[C@@H]1O[C@H](CO)C(O)C1O)c1cccnc1 (stereo partly drawn) [I-7, (2R,5R)-2-(hydroxymethyl)-5-(6-(2-(1-(pyridin-3-yl)ethylidene)hydrazinyl)-9H-purin-9-yl)tetrahydrofuran-3,4-diol] | – | 63.3 µM | 45 µM | 144 µM | 25 µM | 93 µM | – | – | – | – | – | – | –
15 | OC[C@H]1OC(n2cnc3c(NN=Cc4cccnc4)ncnc32)[C@H](O)[C@@H]1O (stereo partly drawn) [I-10] | – | – | – | – | – | – | 22 µM | 0.9 µM | 22 µM | 18 µM | 18 µM | 14 µM | –
16 | CC(=NNc1ncnc2c1ncn2C1O[C@H](CO)[C@@](C)(O)[C@H]1O)c1cccnc1 (stereo partly drawn) [I-3, (2R,3S,4R)-2-(hydroxymethyl)-3-methyl-5-(6-(2-(1-(pyridin-3-yl)ethylidene)hydrazinyl)-9H-purin-9-yl)tetrahydrofuran-3,4-diol] | 11.2 µM | 2.2 µM | 12 µM | 15 µM | 17 µM | 17 µM | – | – | – | – | – | – | –
17 | CC(=NNc1ncnc2c1ncn2[C@@H]1O[C@H](CO)C(O)C1O)c1ccccn1 (stereo partly drawn) [I-6, (2R,5R)-2-(hydroxymethyl)-5-(6-(2-(1-(pyridin-2-yl)ethylidene)hydrazinyl)-9H-purin-9-yl)tetrahydrofuran-3,4-diol] | – | 14 µM | 11 µM | 38 µM | 12 µM | 15 µM | – | – | – | – | – | – | –
18 | OC[C@H]1O[C@@H](n2cnc3c(NN=C(c4ccccc4)c4ccccn4)ncnc32)C(O)C1O (stereo partly drawn) [I-5, (2R,5R)-2-(hydroxymethyl)-5-(6-(2-(phenyl(pyridin-2-yl)methylene)hydrazinyl)-9H-purin-9-yl)tetrahydrofuran-3,4-diol] | – | 64.5 µM | 49 µM | 52.5 µM | 36 µM | 44.9 µM | – | – | – | – | – | – | –
19 | CC(=NNc1ncnc2c1ncn2[C@@H]1O[C@H](CO)C(O)C1O)c1ccncc1 (stereo partly drawn) [I-8, (2R,5R)-2-(hydroxymethyl)-5-(6-(2-(1-(pyridin-4-yl)ethylidene)hydrazinyl)-9H-purin-9-yl)tetrahydrofuran-3,4-diol] | – | 49.6 µM | 56 µM | 213 µM | 60 µM | 68 µM | – | – | – | – | – | – | –
20 | CC(=NNc1ncnc2c1ncn2C1O[C@H](CO)[C@@](C)(O)[C@H]1O)c1ccccn1 (stereo partly drawn) [I-2, (2R,3S,4R)-2-(hydroxymethyl)-3-methyl-5-(6-(2-(1-(pyridin-2-yl)ethylidene)hydrazinyl)-9H-purin-9-yl)tetrahydrofuran-3,4-diol] | – | 23 µM | 11 µM | 17.6 µM | 21 µM | 13.5 µM | – | – | – | – | – | – | –
21 | N#Cc1ccccc1C=NNc1ncnc2c1ncn2C1O[C@H](CO)[C@@H](O)[C@H]1O (stereo partly drawn) [I-14, 2-((2-(9-((3R,4S,5R)-3,4-dihydroxy-5-(hydroxymethyl)tetrahydrofuran-2-yl)-9H-purin-6-yl)hydrazono)methyl)benzonitrile] | < 1 µM | 0.8 µM | 0.7 µM | 1.2 µM | 0.8 µM | 1.9 µM | – | – | – | – | – | – | –
